From patent publication US20230047825A1, “ANTIMICROBIAL PEPTIDES” (priority 2019, published 2023)
Values after ≈ are worked out from the molar mass of the structure shown. Like-named read-outs stand apart in the source and are kept apart here. Where a SMILES comes first, the peptide text is derived from it.

Key:
[1] = system: VR Enterococcus faecium NCTC 12204; test: Antibacterial activity assay (broth microdilution MIC); format: cell-based; settings: VRE12204, in µg/mL
[2] = system: Acinetobacter baumannii ATCC 17978; format: cell-based; settings: in µg/mL; for MIC, Stability in serum (MH): Ab17978
[3] = system: HeLa; test: Cytotoxicity assay (XTT); format: cell-based, human; parameters: Toxicity HeLa: unit not given beside the values
Experimental: (§1) Cytotoxicity assay. HeLa and HEK293 cell lines were purchased from ECACC and cultured in Eagle's Minimum Essential Media (EMEM) containing glutamine, supplemented with 10% FBS and 1× non-essential amino acids (NEAA) at 37° C., 10% CO2. Cytotoxicity was measured by incubating starter cultures of cells for 24 hours in a 96 well plate, gently removing the supernatant and replacing it with dilutions of peptides and controls, incubating for a further 24 hours and then staining of the cells with the second generation tetrazolium dye, XTT. […]

[4] = system: Acinetobacter baumannii AYE; format: cell-based; settings: AYE
[5] = system: Pseudomonas aeruginosa NCTC 13437; test: Antibacterial activity assay (broth microdilution MIC); format: cell-based; settings: PA13437, in µg/mL
[6] = system: VS Enterococcus faecalis NCTC 775; test: as above; format: cell-based
[7] = system: EMR Staphylococcus aureus-16 (EMRSA-16); format: cell-based; settings: EMRSA16
[8] = system: MS Staphylococcus aureus ATCC 9144; format: cell-based
[9] = system: Escherichia coli NCTC 12923; format: cell-based; settings: EC12923
[10] = system: Klebsiella pneumoniae M6; format: cell-based
[11] = system: HEK293; test: Cytotoxicity assay (XTT); format: cell-based, human
Experimental: as §1

[12] = system: Klebsiella pneumoniae NCTC 13368; format: cell-based
[13] = system: human red blood cells; test: Haemolysis assay; settings: red cells of human, 1 h
Experimental: Haemolysis assay. Haemolysis was tested by incubating titrations of AMPs in PBS with freshly collected human red blood cells for 1 hour at 37 C. Control wells were treated with 0.1% Triton-X-100 to ensure complete lysis, or PBS-only to represent no lysis. Samples were spun down to remove non-lysed cells and the OD^550 of the supernatant was measured using a Clariostar plate reader. The percentage of haemolysis was calculated as % haemolysis=(AP−AB)/(AC−AB)×100, where AP is the absorbance value for a known peptide concentration, AC is the absorbance of the 0.1% Triton-X-100 control, AB is the absorbance of the PBS control. Data presented are averages and standard error from three biological replicate experiments.
Methods: The natural AMP (termed AMP1) was modified to produce synthetic variants, AMPs 1a, 2a, 2b, 3a and 3b. Minimum inhibitory concentrations (MICs) were determined using the microbroth dilution assay with Mueller Hinton broth (MHB) or RPMI (with 5% FBS) and stability in serum was tested by conducting MICs in MHB containing 10% FBS. Synergy experiments were performed following a checkerboard protocol. Cytotoxicity was tested against HEK293 and HeLa immortalised human cell-lines using the XTT viability stain and by quantifying haemolysis of human red blood cells. Patch clamp analysis was performed using the Port-a-Patch® automated patch-clamp system on DPhPE/DPhPG (model for a Gram-negative plasma membrane) or DPhPG (Gram-positive) model membranes challenged with peptide. The murine lung infection model was performed using the agar bead model with Staphylococcus aureus strain NCTC 13616 (EMRSA-15).

[14] = system: EMR Staphylococcus aureus-15 (EMRSA-15); format: cell-based; settings: EMRSA15
[15] = untitled table, medium/unit not given, values match RPMI of Table 2
[16] = medium and unit not given, in µg/mL
[17] = untitled table, medium/unit not given, values match RPMI of Table 2, in µg/mL
[18] = untitled table, medium/unit inferred, values match RPMI of Table 2

`CC(C)C[C@H](NC(=O)[C@H](Cc1ccc(O)cc1)NC(=O)[C@H](Cc1c[nH]cn1)NC(=O)[C@@H](NC(=O)[C@H](CC(C)C)NC(=O)[C@H](C)NC(=O)[C@H](C)NC(=O)[C@H](CCCCN)NC(=O)CNC(=O)[C@@H](NC(=O)[C@H](Cc1c[nH]cn1)NC(=O)[C@H](CCCCN)NC(=O)CNC(=O)[C@@H](NC(=O)[C@H](Cc1c[nH]cn1)NC(=O)[C@H](C)NC(=O)[C@H](C)NC(=O)[C@H](CCCCN)NC(=O)[C@H](CCCCN)NC(=O)[C@H](Cc1ccccc1)NC(=O)[C@H](Cc1ccccc1)NC(=O)[C@H](CO)NC(=O)CNC(=O)[C@H](Cc1c[nH]c2ccccc12)NC(=O)CN)C(C)C)C(C)C)[C@@H](C)O)C(N)=O` [Pleurocidin, reference compound] (H-GWGSFFKKAAHVGKHVGKAALTHYL-NH2; N-terminus assumed) was tested, and the “MIC on initial panels” value ([1]; medium and unit not given) was 16-32, the MIC [1, 15] was 32 and the MIC ([2]; AB17978, (MH)) was 1-2. For the same molecule, the MIC ([2]; AB17978, (RPMI)) was 8, the “MIC on initial panels” value ([2]; AB17978, medium and unit not given) was 1-2 and the MIC ([2]; AB17978, untitled table, medium/unit not given, values match RPMI of Table 2) was 8. For the same molecule, the “MIC, Stability in serum (MH)” value ([2]; No serum) was 2, the “MIC, Stability in serum (MH)” value ([2]; Serum (10% fetal bovine serum)) was 2 and the “Toxicity HeLa” value ([3]; unit not given) was 58.2 ± 3.9. The “Toxicity HeLa (EC50), Peptide concentration” value ([3]; value printed in parentheses) was “(58.2 ± 3.9) μg/ml”, the MIC ([4]; (MH), in µg/mL) was 1-2 and the MIC ([4]; (RPMI), in µg/mL) was 4-8. The MIC, Stability in serum (MH) ([4]; No serum) was 2 µg/mL (≈ 0.738 µM), the MIC, Stability in serum (MH) ([4]; Serum (10% fetal bovine serum)) was 2 µg/mL (≈ 0.738 µM) and the “MIC on initial panels” value [4, 16] was 1-2. The MIC [4, 17] was 4-8, the MIC ([5]; (MH)) was 16-32 and the MIC ([5]; (RPMI)) was >32. The “MIC, Stability in serum (MH)” value ([5]; No serum) was 16, the “MIC, Stability in serum (MH)” value ([5]; Serum (10% fetal bovine serum)) was 32 and the “MIC on initial panels” value ([5]; medium and unit not given) was 16-32. For the same molecule, the MIC [5, 15] was >32, the “MIC, Peptide concentration” value ([6]; Mueller-Hinton broth) was 64 (NG) μg/ml and the “MIC on initial panels” value ([6]; VSE775, medium and unit not given, in µg/mL) was 64. The “MIC on initial panels” value [7, 16] was 16, the MIC [7, 18] was 4 µg/mL (≈ 1.48 µM) and the “MIC, Peptide concentration” value ([8]; ATCC 9144) was 2 µg/mL (≈ 0.738 µM). For the same molecule, the MIC on initial panels ([8]; MSSA9144, medium and unit inferred) was 4 µg/mL (≈ 1.48 µM), the MIC ([8]; MSSA9144, untitled table, medium/unit not given, values match RPMI of Table 2, in µg/mL) was 2 and the MIC ([9]; (MH), in µg/mL) was 1-2. The MIC ([9]; (RPMI), in µg/mL) was 16, the MIC, Stability in serum (MH) ([9]; No serum) was 2 µg/mL (≈ 0.738 µM) and the MIC, Stability in serum (MH) ([9]; Serum (10% fetal bovine serum)) was 1 µg/mL (≈ 0.369 µM). For the same molecule, the “MIC on initial panels” value [9, 16] was 1-2, the MIC [9, 17] was 16 and the MIC ([10]; (MH), in µg/mL) was 4. It also gave an MIC ([10]; (RPMI), in µg/mL) of 32, an MIC, Stability in serum (MH) ([10]; No serum) of 4 µg/mL (≈ 1.48 µM) and an MIC, Stability in serum (MH) ([10]; Serum (10% fetal bovine serum)) of 8 µg/mL (≈ 2.95 µM). The “MIC on initial panels” value [10, 16] was 4, the MIC [10, 17] was 32 and the “Toxicity HEK293” value ([11]; unit not given) was 87.5 ± 11.1. The “Toxicity HEK293 (EC50), Peptide concentration” value ([11]; value printed in parentheses) was “(87.5 ± 11.1) μg/ml”, the “MIC, Stability in serum (MH)” value ([12]; KP13368, No serum, in µg/mL) was 4 and the “MIC, Stability in serum (MH)” value ([12]; KP13368, Serum (10% fetal bovine serum), in µg/mL) was 8. The “MIC on initial panels” value ([12]; KP13368, medium and unit not given, in µg/mL) was 4-8, the MIC ([12]; KP13368, untitled table, medium/unit not given, values match RPMI of Table 2, in µg/mL) was 32 and the MIC ([12]; Klebsiella pneumoniae KP13368, (MH), in µg/mL) was 4-8. The MIC ([12]; Klebsiella pneumoniae KP13368, (RPMI), in µg/mL) was 32, the “MIC, Peptide concentration” value ([12]; NCTC 13368) was 3 µg/mL (≈ 1.11 µM) and the “Toxicity HC50, Peptide concentration” value [13] was ~400 µg/mL. For the same molecule, the MIC on initial panels ([14]; medium and unit inferred) was 16 µg/mL (≈ 5.9 µM) and the MIC [14, 18] was 4 µg/mL (≈ 1.48 µM).
